Test results published in the supplement of paper PMC8882468.

Experiments:
Test in all cases: CTG-3D luminescence at 96 h relative to day-0 seeding control (ratio to day 0); higher = more growth / less cytotoxicity; PDxO 3D drug screen, 96 h, CTG-3D normalised to day-0 seeding control.
HCI-023 = test system: HCI-023 (organoid from a triple-negative breast cancer xenograft)
HCI-012 = test system: HCI-012 (organoid from a breast cancer xenograft)
HCI-024 = test system: HCI-024 (organoid from a breast cancer xenograft)
HCI-002 = test system: HCI-002 (organoid from a triple-negative breast cancer xenograft)
HCI-025 = test system: HCI-025 (organoid from a breast cancer xenograft)

COc1cccc2c1C(=O)c1c(O)c3c(c(O)c1C2=O)C[C@@](O)(C(=O)CO)C[C@@H]3O[C@H]1C[C@H](N)[C@H](O)[C@H](C)O1 [doxorubicin]
CTG-3D luminescence at 96 h
Settings | 12.5 pM | 0.00025 µM | 0.005 µM | 0.1 µM | 1 µM | 10 µM | 100 µM | 625 fM
HCI-002, days in culture: 62 | 2.87 | 2.62 | 2.59 | 1.61 | 0.668 | 0.0335 | 0.00573 | 2.88
HCI-002, days in culture: 82 | 3.24 | 2.83 | 2.22 | 2.02 | 0.999 | 0.0349 | 0.0154 | 3.02
HCI-002, days in culture: 91 | 4.09 | 3.38 | 3.24 | 2.3 | 1.03 | 0.0844 | 0.0322 | 3.96
HCI-002, days in culture: 191 | 2.74 | 2.53 | 2.51 | 1.69 | 1.02 | 0.0535 | 0.00895 | 2.52
HCI-002, days in culture: 209 | 2.54 | 2.37 | 2.28 | 1.51 | 0.836 | 0.0193 | 0.00843 | 2.44
HCI-002, days in culture: 227 | 4.92 | 5.5 | 4.24 | 3.32 | 1.62 | 0.0266 | -0.0178 | 5.72
HCI-012, days in culture: 143 | 1.78 | 1.93 | 1.8 | 0.35 | 0.0586 | -0.00257 | -0.0149 | 1.91
HCI-012, days in culture: 162 | 2.15 | 2.16 | 2.04 | 0.961 | 0.0655 | 0.00235 | -0.0139 | 3.15
HCI-012, days in culture: 201 | 2.84 | 1.58 | 1.7 | 0.408 | 0.0363 | 0.000335 | -0.0192 | 1.33
HCI-023, days in culture: 111 | 1.54 | 1.21 | 1.32 | 1.1 | 0.426 | 0.00296 | 0.00755 | 1.45
HCI-023, days in culture: 128 | 1.92 | 1.73 | 1.62 | 1.33 | 0.321 | 0.00812 | 0.00367 | 2.08
HCI-024, days in culture: 105 | 1.87 | 1.64 | 1.47 | 1.53 | 1.05 | 0.158 | 0.154 | 2.18
HCI-024, days in culture: 122 | 2.06 | 2.32 | 1.72 | 1.45 | 1.06 | 0.153 | 0.156 | 2.88
HCI-024, days in culture: 163 | 1.43 | 2.44 | 1.96 | 2.3 | 1.38 | 0.176 | 0.187 | 1.44
HCI-025, days in culture: 172 | 2.56 | 1.67 | 2.22 | 1.81 | 0.663 | -0.00377 | -0.0121 | 2.18
HCI-025, days in culture: 209 | 2.17 | 2.18 | 2.33 | 1.37 | 0.406 | 0.0188 | -0.00838 | 1.45
HCI-025, days in culture: 218 | 1.71 | 1.89 | 1.74 | 1.66 | 0.23 | 0.0154 | -0.0116 | 1.66

O=C(c1ccc(F)c(F)c1Nc1ccc(I)cc1F)N1CC(O)([C@@H]2CCCCN2)C1 [cobimetinib]
CTG-3D luminescence at 96 h
Settings | 12.5 pM | 0.00025 µM | 0.005 µM | 0.1 µM | 1 µM | 10 µM | 100 µM | 625 fM
HCI-002, days in culture: 62 | 2.96 | 2.54 | 2.87 | 1.97 | 1.32 | 0.777 | -0.0104 | 3.02
HCI-002, days in culture: 82 | 3.18 | 3.07 | 2.39 | 1.88 | 1.72 | 0.519 | -0.0137 | 3.03
HCI-002, days in culture: 91 | 3.83 | 3.46 | 2.9 | 2.74 | 1.55 | 0.722 | -0.0112 | 3.97
HCI-002, days in culture: 191 | 2.68 | 2.52 | 2.54 | 1.88 | 1.67 | 0.799 | -0.00417 | 2.65
HCI-002, days in culture: 209 | 2.44 | 2.32 | 2.11 | 1.78 | 1.43 | 0.589 | -0.00565 | 2.4
HCI-002, days in culture: 227 | 5.23 | 5.25 | 4.79 | 4.53 | 2.78 | 1.04 | -0.0104 | 5.77
HCI-012, days in culture: 143 | 1.73 | 1.86 | 1.88 | 1.87 | 1.57 | 0.758 | -0.00459 | 1.71
HCI-012, days in culture: 162 | 2.44 | 2.1 | 1.91 | 2.85 | 1.59 | 1.45 | 0.00171 | 2.91
HCI-012, days in culture: 201 | 2.69 | 1.53 | 1.69 | 1.91 | 2.24 | 1.02 | -0.00449 | 1.35
HCI-023, days in culture: 111 | 1.18 | 1.25 | 1.15 | 1.13 | 0.75 | 0.349 | -0.00131 | 1.06
HCI-023, days in culture: 128 | 1.67 | 1.44 | 1.83 | 1.63 | 0.769 | 0.338 | -0.000598 | 1.65
HCI-024, days in culture: 105 | 1.71 | 1.74 | 1.38 | 1.36 | 0.803 | 0.316 | -0.00552 | 2.08
HCI-024, days in culture: 122 | 2.66 | 2.28 | 2.13 | 1.03 | 0.873 | 0.979 | -0.000547 | 3.01
HCI-024, days in culture: 163 | 1.51 | 2.19 | 1.89 | 2.26 | 1.17 | 0.872 | -0.0079 | 2.15
HCI-025, days in culture: 172 | 2.78 | 1.47 | 2.47 | 1.38 | 1.47 | 0.608 | -0.00396 | 2.94
HCI-025, days in culture: 209 | 1.76 | 1.67 | 2.01 | 1.27 | 1.15 | 1.26 | -0.00298 | 1.83
HCI-025, days in culture: 218 | 1.65 | 2.13 | 1.88 | 1.42 | 1.18 | 1.58 | -0.00137 | 1.71

CN(Cc1cnc2nc(N)nc(N)c2n1)c1ccc(C(=O)N[C@@H](CCC(=O)O)C(=O)O)cc1 [methotrexate]
CTG-3D luminescence at 96 h
Settings | 12.5 pM | 0.00025 µM | 0.005 µM | 0.1 µM | 1 µM | 10 µM | 100 µM | 625 fM
HCI-002, days in culture: 62 | 2.96 | 2.69 | 2.51 | 2.07 | 1.87 | 1.98 | 1.41 | 3
HCI-002, days in culture: 82 | 2.95 | 3.08 | 2.15 | 2.74 | 2.21 | 2.01 | 1.45 | 2.71
HCI-002, days in culture: 91 | 3.87 | 3.77 | 3.65 | 2.64 | 2.19 | 2.11 | 1.68 | 4.28
HCI-002, days in culture: 191 | 2.61 | 2.61 | 2.29 | 1.61 | 1.57 | 1.54 | 1.33 | 2.53
HCI-002, days in culture: 209 | 2.46 | 2.21 | 2.31 | 1.84 | 1.59 | 1.28 | 1.33 | 2.57
HCI-002, days in culture: 227 | 6.13 | 6.3 | 5.89 | 6.23 | 5.35 | 5.18 | 4.27 | 6.94
HCI-012, days in culture: 143 | 2.07 | 1.83 | 2.09 | 1.37 | 1.4 | 1.33 | 1.51 | 2.07
HCI-012, days in culture: 162 | 2.66 | 2.5 | 2.06 | 1.69 | 1.04 | 1.12 | 1.06 | 2.7
HCI-012, days in culture: 201 | 2.49 | 2.01 | 1.57 | 0.935 | 1.44 | 0.611 | 1.21 | 1.49
HCI-023, days in culture: 111 | 1.59 | 1.42 | 1.18 | 1.07 | 0.83 | 0.957 | 0.655 | 1.51
HCI-023, days in culture: 128 | 1.68 | 1.51 | 1.5 | 1.84 | 1.37 | 1.77 | 1.22 | 1.62
HCI-024, days in culture: 105 | 1.92 | 1.49 | 1.24 | 1.99 | 1.64 | 2 | 1.44 | 1.83
HCI-024, days in culture: 122 | 1.69 | 2.22 | 2.07 | 2 | 2.13 | 2.46 | 1.82 | 2.88
HCI-024, days in culture: 163 | 1.9 | 2.08 | 1.83 | 2.4 | 2.14 | 2.03 | 1.74 | 2.12
HCI-025, days in culture: 172 | 2.75 | 2.07 | 3.51 | 1.47 | 1.98 | 1.22 | 1.02 | 2.55
HCI-025, days in culture: 209 | 1.86 | 1.56 | 2.06 | 0.982 | 1.3 | 0.947 | 0.76 | 1.49
HCI-025, days in culture: 218 | 1.83 | 2 | 2 | 1.06 | 0.978 | 1.26 | 0.754 | 1.76
